Data taken from ChEMBL document CHEMBL1201862, “PubChem BioAssay data set” (2004).
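Results reflect a 48-hour exposure of cells in 96-well plates to compound at five concentrations. Abbreviation: GI50, concentration required for 50% inhibition of growth.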 Activity calls are given as the source filed them. Rule as the data show it: active = GI50 up to about 1.1 µM and inactive = higher.

Columns and labels:
Assay in all cases: inhibition of tumour cell growth, NCI panel, 48 h
LOX IMVI = test system: LOX IMVI
HCC 2998 = test system: HCC 2998
SW-620 = test system: SW-620
SK-MEL-28 = test system: SK-MEL-28
RXF 393 = test system: RXF 393
COLO 205 = test system: COLO 205
EKVX = test system: EKVX
OVCAR-5 = test system: OVCAR-5
SF-295 = test system: SF-295
PC-3 = test system: PC-3
SK-MEL-5 = test system: SK-MEL-5
DU-145 = test system: DU-145
HCT-15 = test system: HCT-15
NCI/ADR-RES = test system: NCI/ADR-RES
SF-268 = test system: SF-268
OVCAR-8 = test system: OVCAR-8
NCI-H522 = test system: NCI-H522
HOP-62 = test system: HOP-62
MDA-MB-435 = test system: MDA-MB-435

Measured: GI50

COc1cc(OC)c2nc(C)c3c(c2c1)SCC3
inactive: LOX IMVI 32.7 µM | HCC 2998 46.9 µM | SW-620 27 µM | SK-MEL-28 31 µM | RXF 393 24.3 µM | COLO 205 > 100 µM | EKVX 10.1 µM | OVCAR-5 29.6 µM | SF-295 27.5 µM | PC-3 20 µM | SK-MEL-5 21.3 µM | DU-145 44.8 µM | NCI/ADR-RES 27.4 µM | SF-268 19.4 µM | OVCAR-8 19 µM | NCI-H522 36.1 µM | HOP-62 18.2 µM | MDA-MB-435 25.5 µM
42.3 µM: HCT-15

NCCn1cnc2nc(NC(=O)c3ccccc3)[nH]c(=O)c21
> 100 µM: HCT-15
inactive: LOX IMVI > 100 µM | HCC 2998 > 100 µM | SW-620 > 100 µM | SK-MEL-28 > 100 µM | RXF 393 > 100 µM | COLO 205 > 100 µM | EKVX > 100 µM | OVCAR-5 > 100 µM | SF-295 > 100 µM | SF-268 > 100 µM | OVCAR-8 > 100 µM | HOP-62 > 100 µM

COC(=O)NC(=O)c1cn(C2CCCCC2)c(=O)[nH]c1=O
> 100 µM: HCT-15
inactive: LOX IMVI > 100 µM | HCC 2998 > 100 µM | SW-620 > 100 µM | SK-MEL-28 > 100 µM | RXF 393 > 100 µM | COLO 205 > 100 µM | OVCAR-5 > 100 µM | SF-295 > 100 µM | SK-MEL-5 > 100 µM | SF-268 > 100 µM | OVCAR-8 > 100 µM | NCI-H522 > 100 µM | HOP-62 > 100 µM

COc1ccc2c(c1OCC(=O)O)C(=O)C(CCC(=O)O)CC2 (centres undefined)
> 100 µM: HCT-15
inactive: LOX IMVI > 100 µM | HCC 2998 > 100 µM | SW-620 > 100 µM | SK-MEL-28 > 100 µM | RXF 393 > 100 µM | COLO 205 > 100 µM | EKVX > 100 µM | SF-295 > 100 µM | SK-MEL-5 > 100 µM | OVCAR-8 > 100 µM | HOP-62 > 100 µM

N/N=C(/Cc1nc2ccc(C(=O)c3ccccc3)cc2nc1O)C(=O)Nc1ccc([N+](=O)[O-])cc1[N+](=O)[O-]
> 10 µM: HCT-15
inactive: LOX IMVI > 10 µM | HCC 2998 > 10 µM | SW-620 > 100 µM | SK-MEL-28 > 10 µM | RXF 393 > 100 µM | COLO 205 > 10 µM | EKVX > 100 µM | OVCAR-5 > 10 µM | SF-295 > 10 µM | SK-MEL-5 86.7 µM | SF-268 > 10 µM | OVCAR-8 81.8 µM | NCI-H522 > 10 µM

O=c1c2c(nc3n1CCC3)sc1c(O)c(Br)ccc12
18.6 µM: HCT-15
inactive: LOX IMVI 13 µM | HCC 2998 17.1 µM | SW-620 12.5 µM | SK-MEL-28 16.4 µM | RXF 393 29.9 µM | COLO 205 11.8 µM | EKVX 23.9 µM | OVCAR-5 20.7 µM | SF-295 17.3 µM | SK-MEL-5 14.5 µM | SF-268 60.4 µM | OVCAR-8 10.7 µM | NCI-H522 16 µM | HOP-62 19.1 µM

O=C1C(=O)N(C2C3CC4CC(C3)CC2C4)C(=O)C(=O)C1c1nc2ccccc2o1 (centres undefined)
43.6 µM: HCT-15
inactive: LOX IMVI > 100 µM | HCC 2998 57.5 µM | SW-620 55 µM | SK-MEL-28 > 100 µM | RXF 393 70 µM | COLO 205 51.6 µM | EKVX > 100 µM | OVCAR-5 23.2 µM | SF-295 > 100 µM | SF-268 92.9 µM | OVCAR-8 > 100 µM | HOP-62 > 100 µM

CC(=O)O[C@]1(C)CCC2C(C)C(=O)OC2C2C(C)[C@@H](O)CC21 (some centres undefined)
18.1 µM: HCT-15
inactive: LOX IMVI 17.9 µM | HCC 2998 24.6 µM | SW-620 15.8 µM | SK-MEL-28 34 µM | RXF 393 32.3 µM | COLO 205 20 µM | EKVX 67.5 µM | OVCAR-5 29.8 µM | SF-295 72.3 µM | SK-MEL-5 32.1 µM | SF-268 33.3 µM | OVCAR-8 87.9 µM | NCI-H522 13.1 µM | HOP-62 19.3 µM

COc1cccc(NC(=O)CSc2nnc(-c3ccc(/N=C\c4ccc(Cl)cc4)cc3)o2)c1
inactive: LOX IMVI 20.2 µM | SW-620 20.4 µM | SK-MEL-28 18.3 µM | RXF 393 18.3 µM | COLO 205 19.4 µM | EKVX 36.7 µM | SF-295 20.2 µM | SK-MEL-5 18.6 µM | SF-268 19.4 µM | OVCAR-8 24.4 µM | NCI-H522 15.6 µM | HOP-62 31.6 µM
17.3 µM: HCT-15

O=C(OCCOCBr)c1ccccc1
inactive: LOX IMVI > 100 µM | HCC 2998 > 100 µM | SW-620 > 100 µM | SK-MEL-28 > 100 µM | COLO 205 > 100 µM | EKVX > 100 µM | OVCAR-5 > 100 µM | SF-295 > 100 µM | SK-MEL-5 > 100 µM | SF-268 > 100 µM | OVCAR-8 > 100 µM | NCI-H522 > 100 µM | HOP-62 > 100 µM
> 100 µM: HCT-15

O=C(O)CCC1(Br)CCCCC(Br)C1=O (centres undefined)
> 100 µM: HCT-15
inactive: HCC 2998 > 100 µM | SW-620 > 100 µM | SK-MEL-28 > 100 µM | RXF 393 85.9 µM | COLO 205 > 100 µM | EKVX > 100 µM | OVCAR-5 > 100 µM | SF-295 > 100 µM | SK-MEL-5 > 100 µM | SF-268 > 100 µM | OVCAR-8 > 100 µM | NCI-H522 > 100 µM | HOP-62 > 100 µM

COc1ccccc1/C=C(\C#N)C(=O)c1ccccc1
inactive: LOX IMVI > 100 µM | HCC 2998 > 100 µM | SW-620 > 100 µM | SK-MEL-28 > 100 µM | COLO 205 > 100 µM | EKVX > 100 µM | OVCAR-5 > 100 µM | SF-295 > 100 µM | SK-MEL-5 > 100 µM | SF-268 > 100 µM | OVCAR-8 > 100 µM | NCI-H522 > 100 µM | HOP-62 > 100 µM
> 100 µM: HCT-15

Cn1c(-c2ccc(-c3cc(-c4cccs4)c(-c4cccs4)n3C)cc2)cc(-c2cccs2)c1-c1cccs1
> 100 µM: HCT-15
inactive: HCC 2998 > 100 µM | SW-620 > 100 µM | SK-MEL-28 > 100 µM | RXF 393 > 100 µM | COLO 205 > 100 µM | EKVX > 100 µM | SF-295 > 100 µM | PC-3 > 100 µM | SK-MEL-5 > 100 µM | DU-145 > 100 µM | NCI/ADR-RES > 100 µM | SF-268 > 100 µM | OVCAR-8 > 100 µM | HOP-62 > 100 µM | MDA-MB-435 > 100 µM

C/C(CC(=O)Nc1ccc(Cl)cc1)=N\NC(N)=S
inactive: LOX IMVI 1.81 µM | HCC 2998 30.9 µM | SW-620 > 100 µM | SK-MEL-28 > 100 µM | RXF 393 > 100 µM | COLO 205 23.3 µM | EKVX > 100 µM | OVCAR-5 > 100 µM | SF-295 29 µM | SK-MEL-5 26.1 µM | SF-268 54 µM | OVCAR-8 > 100 µM | NCI-H522 47.2 µM | HOP-62 67.9 µM

O=[N+]([O-])c1cc(I)cc(/C=N/NS(=O)(=O)c2ccc(Cl)cc2)c1O
inactive: LOX IMVI 19.8 µM | HCC 2998 22.1 µM | SW-620 27.6 µM | SK-MEL-28 27.7 µM | RXF 393 23.4 µM | COLO 205 18.9 µM | EKVX 32.6 µM | OVCAR-5 25 µM | SF-295 25.6 µM | SK-MEL-5 18 µM | SF-268 36.9 µM | OVCAR-8 20.7 µM | NCI-H522 16.9 µM | HOP-62 25.6 µM
20.4 µM: HCT-15

CCC(O)C1Cc2c(C)cc3c(c2O1)C(=O)c1ccccc1C3=O (centres undefined)
19.6 µM: HCT-15
inactive: LOX IMVI 27.7 µM | HCC 2998 29.6 µM | SW-620 52 µM | SK-MEL-28 49.2 µM | COLO 205 16.1 µM | EKVX 62.4 µM | OVCAR-5 72.3 µM | SF-295 29.6 µM | SK-MEL-5 44.7 µM | SF-268 25.1 µM | OVCAR-8 32.4 µM | NCI-H522 21.1 µM | HOP-62 35.9 µM

Cc1nn(C)c(=S)n(C)c1=O
3.76 µM: HCT-15
active: SK-MEL-28 0.571 µM | RXF 393 0.498 µM | SF-295 0.571 µM | SF-268 0.56 µM | OVCAR-8 0.571 µM | NCI-H522 0.275 µM
inactive: LOX IMVI 1.79 µM | HCC 2998 4.1 µM | SW-620 1.79 µM | COLO 205 4.16 µM | EKVX 4.83 µM | OVCAR-5 2.26 µM | HOP-62 1.81 µM

CC(=O)Oc1ccc2c(=O)c(C(C)=O)coc2c1
> 100 µM: HCT-15
inactive: LOX IMVI 81.8 µM | SW-620 > 100 µM | SK-MEL-28 > 100 µM | RXF 393 > 100 µM | COLO 205 > 100 µM | EKVX > 100 µM | OVCAR-5 > 100 µM | SF-295 > 100 µM | SK-MEL-5 > 100 µM | SF-268 > 100 µM | OVCAR-8 > 100 µM | NCI-H522 > 100 µM | HOP-62 > 100 µM

c1nc2cscc2c2cscc12
inactive: LOX IMVI > 100 µM | HCC 2998 > 100 µM | SW-620 > 100 µM | SK-MEL-28 > 100 µM | RXF 393 > 100 µM | OVCAR-5 > 100 µM | SF-295 > 100 µM | SF-268 > 100 µM | OVCAR-8 > 100 µM | NCI-H522 > 100 µM | HOP-62 > 100 µM
> 100 µM: HCT-15
